Measurements reported in PMC10302187, “WssI from the Gram-negative bacterial cellulose synthase is an O-acetyltransferase that acts on cello-oligomers with several acetyl donor substrates” (The Journal of Biological Chemistry, 2023).

Experiments:
[1] = target: T1, AiWssI^ΔN (Achromobacter insuavis, UniProt A0A6J5I893); assay: pNP-Ac cleavage in the presence of oligosaccharide acceptors; assay type: biochemical; settings: 1 mM oligosaccharide, 6 mM pNP-Ac, 2 μM enzyme; for Specific activity of AiWssI^ΔN with acceptor relative to no acceptor control: t test; for Increase in AiWssI^ΔN activity versus reaction without celloacceptors: 30 min, 23 °C
Description: Acetyltransfer by WssI was performed under the same esterase assay protocol outlined previously, but with the addition of cellulose or chitin oligosaccharides (1 mM) as the acceptor in the presence of either pNP-Ac (6 mM) or acetyl-CoA (4 mM) as the acetyl donor ([…]). Assessment of acetyltransfer was first monitored indirectly (absorbance at 405 nm wavelength) by observing differences in pNP liberation rates in the presence and absence of the polysaccharide acceptors. Later to confirm the acetylated products, reactions performed with pNP-Ac and acceptor polysaccharides were subjected to solid-phase extraction of the carbohydrate reaction products followed by detection with MS (as outlined later). Reactions utilizing acetyl-CoA as the donor were subjected to LC–MS analyses. All model fitting and statistical analyses were performed using GraphPad Prism, version 8.4.3.

[2] = target: T1, AiWssI^ΔN; assay: HTS MU-Ac fluorescence esterase dose-response assay; assay type: biochemical; settings: MU-Ac as esterase substrate
Description: Large-scale HTS was conducted at the SPARC BioCentre Drug Discovery (Hospital for Sick Children, Toronto, Canada) with a subset of the Chembridge DIVERset library collection (as well as 135 manually selected compounds based on success against other SGNH enzymes) in a 384-well format. The assay was performed in singlet during the primary screen of the entire compound list and in triplicate for a follow-up confirmatory screen. Reaction setups for both screens were conducted with 50 mM sodium phosphate buffer (pH 6.5), 3 μM AiWssI^ΔN and 0.5 mM MU-Ac (final concentration of 5% [v/v] dimethyl sulfoxide) using a Thermo MultiDrop Combi Reagent Dispenser. The reaction was initiated by the addition of 20 μM of the test compounds using an Echo 550 acoustic dispenser (Labcyte). Fluorescence was monitored with a SynergyNeo microplate reader (BioTek) using excitation and emission wavelengths of 365 and 450 nm, respectively, for approximately 45 min alongside appropriate negative and positive controls. […] The hits remaining after the primary and confirmatory screening were examined further to identify possible PAINS, which could result in false-positive results ([91]). Further refinement of the lead candidates was also conducted by assessing the fluorescence quenching potential of lead compound hits by assaying the quenching potential of different compound concentrations (10.1 μM and/or 50.5 μM) against the fluorescence of 4-methylumbeliferone (247 μM) to reveal any potential false positives that were not actually because of AiWssI^ΔN activity. All fluorescence readings were normalized using the following equation to determine the percentage of quenching ([92]): NormalizedFlouresence=Fobs−μFmin/μFmax−μFminx100% In the aforementioned formula, Fobs is the sample fluorescence value, μFmin is the mean fluorescence value of the negative controls, and μFmax is the mean fluorescence value of the positive controls.
(§1) All inhibitor compounds for confirmatory assays were purchased from Enamine Ltd, with the exception of compound 1 (Santa Cruz Biotechnology, Inc), Compounds 2 and 7 (Molport via Maybridge Ltd and Vitas M Chemical Ltd, respectively) and compound 6 (Mcule, Inc). The dose–response curves were generated using either CDD Vault Analysis Software (Collaborative Drug Discovery, Inc) or GraphPad Prism, version 8.4.3. Inhibition constants (Ki) were calculated using the Cheng–Prusoff equation for competitive inhibition that is calculated using the KM of the uninhibited enzyme, the substrate concentration (S) at which the IC50 values were calculated, and the IC50 value of the inhibitor ([92]): Ki=IC50/(S/KM+1)

[3] = target: T1, AiWssI^ΔN; assay type: biochemical; settings: 1 h incubation with reagent (1 mM PMSF, 5 mM MSF, 5 mM EDTA, 0.1 mM E-64, 20 μM Pepstatin A); 6 mM pNP-Ac, pH 7
Description: (§2) The enzymatic rate of the WssI^ΔN proteins was measured using chromogenic assays in a 50 mM sodium phosphate-buffered (pH 7) solution, with WssI^ΔN (3 μM unless specified otherwise) and were initiated by the addition of pNP-Ac to a final concentration of 6 mM (dissolved in 5% [v/v] ethanol). Assay samples and corresponding controls (i.e., containing no WssI^ΔN and/or substrate) were run in quadruplicate, and the progress of the reaction was monitored at 405 nm (Cytation5) for 30 min in 1 min intervals following a 5 s initial linear shake to mix contents thoroughly. These conditions were deemed standard assay conditions for subsequent trials except where modifications are noted. The activity assay to determine optimal pH and buffer type was performed with 2-(N-morpholino)ethanesulfonic acid over pH ranges of 5.5 to 6.5, sodium phosphate for pH 6.5 to 7.5, and Tris for the final range of 7.5 to 9.25. In addition, standard assay conditions were modified by incorporating various inhibitors and common reducing agents to determine effects on WssI^ΔN activity. […] To test the effects of the absence of DTT, trials were conducted where DTT was removed from all purification and dialysis buffers, unless mentioned otherwise. Data are either reported in specific activity as units of esterase activity (i.e., the amount of enzyme required to release 1 μmol of p-nitrophenol per min^−1 per mg of protein^−1) or as percent residual activity when compared with the WssI^ΔN controls (i.e., containing no inhibitors).

[4] = target: T2, PfWssI^ΔN (Pseudomonas fluorescens, UniProt Q8RSY4); assay type: biochemical; settings: 1 h incubation with reagent (1 mM PMSF, 5 mM MSF, 5 mM EDTA, 0.1 mM E-64, 20 μM Pepstatin A); 6 mM pNP-Ac, pH 7
T2 sequence (Q8RSY4 92-374): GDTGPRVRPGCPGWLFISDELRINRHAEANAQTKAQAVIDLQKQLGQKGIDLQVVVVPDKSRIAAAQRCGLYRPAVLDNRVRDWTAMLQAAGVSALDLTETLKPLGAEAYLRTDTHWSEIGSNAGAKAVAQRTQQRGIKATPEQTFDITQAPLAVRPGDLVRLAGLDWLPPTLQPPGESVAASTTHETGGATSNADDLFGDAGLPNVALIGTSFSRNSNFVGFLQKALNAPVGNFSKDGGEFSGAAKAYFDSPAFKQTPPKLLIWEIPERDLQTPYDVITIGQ
Description: as §2

[5] = system: CC(=O)Oc1ccc([N+](=O)[O-])cc1; assay: O-acetylesterase Michaelis-Menten kinetics; assay type: biochemical, Achromobacter insuavis; settings: other: AiWssI^ΔN, acetyl donor substrate, pH 7
Description: as §2
(§3) The fluorescence substrate, MU-Ac, was also tested as a substrate of WssI^ΔN for its amenability to the planned high-throughput analyses (see later). Reaction setups were exactly the same as that for pNP-Ac, with the exceptions of the assay buffer (50 mM sodium phosphate, 150 mM NaCl, 1 mM DTT, pH 7), MU-Ac as the acetyl donor (final concentration of 0.5 mM along with 5% [v/v] dimethyl sulfoxide, as this was the solvent for MU-Ac), and the assay was performed in fluorescence compatible microplates (Grenier BioOne) and monitored with excitation and emission wavelengths of 365 and 450 nm, respectively for 60 min.
(§4) Kinetic assays were performed using the same standard assay conditions for esterase reactions outlined previously, but with acetyl donor pNP-Ac concentrations ranging from 0 to 10 mM and MU-Ac concentrations between 0 and 8 mM. Michaelis–Menten parameters, such as KM and kcat, were calculated from the kinetic curves according to a nonlinear regression analysis of plots of initial velocity as a function of pNP-Ac or MU-Ac concentration using GraphPad Prism, version 8.4.3 (GraphPad Sofware, Inc).

[6] = system: CC(=O)Oc1ccc2c(C)cc(=O)oc2c1; assay: O-acetylesterase Michaelis-Menten kinetics; assay type: biochemical, Achromobacter insuavis; settings: other: AiWssI^ΔN, acetyl donor substrate, pH 7
Description: as §2, §3, §4

[7] = target: T1, AiWssI^ΔN; assay: Follow-up standard MU-Ac esterase assay (dose-response); assay type: biochemical; settings: for IC50: MU-Ac (0.5 mM) as esterase substrate, read-out: Second MU-Ac IC50; for Ki: MU-Ac as esterase substrate, Cheng-Prusoff, competitive inhibition, read-out: Second MU-Ac Ki
Description: as §3, §1

[8] = substrate: CC(=O)Oc1ccc([N+](=O)[O-])cc1; assay: O-acetylesterase Michaelis-Menten kinetics; assay type: biochemical, Pseudomonas fluorescens; settings: other: PfWssI^ΔN, acetyl donor substrate, pH 7
Description: as §2, §3, §4

[9] = substrate: CC(=O)Oc1ccc2c(C)cc(=O)oc2c1; assay: O-acetylesterase Michaelis-Menten kinetics; assay type: biochemical, Pseudomonas fluorescens; settings: other: PfWssI^ΔN, acetyl donor substrate, pH 7
Description: as §2, §3, §4

T1 sequence (A0A6J5I893 entry or part of it, stated change not applied): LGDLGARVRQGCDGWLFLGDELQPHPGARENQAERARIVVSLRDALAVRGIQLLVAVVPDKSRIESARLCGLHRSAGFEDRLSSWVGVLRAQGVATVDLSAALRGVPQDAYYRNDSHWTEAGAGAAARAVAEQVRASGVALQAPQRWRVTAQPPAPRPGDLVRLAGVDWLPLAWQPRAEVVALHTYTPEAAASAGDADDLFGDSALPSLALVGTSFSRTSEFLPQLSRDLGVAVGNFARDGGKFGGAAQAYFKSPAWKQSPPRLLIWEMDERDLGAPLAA

For `OC[C@H]1O[C@@H](O[C@H]2[C@H](O)[C@@H](O)[C@H](O[C@H]3[C@H](O)[C@@H](O)[C@H](O[C@H]4[C@H](O)[C@@H](O)C(O)O[C@@H]4CO)O[C@@H]3CO)O[C@@H]2CO)[C@H](O)[C@@H](O)[C@@H]1O` (some centres unmarked) [cellotetraose], the “Specific activity of AiWssI^ΔN with acceptor relative to no acceptor control” value [1] was “Significant increases in activity”.

In the case of `Cc1nc(N2CCCCC2)sc1/C=N/Nc1ccc(C(=O)O)cc1` [Compound 8, 4-[(2E)-2-{[4-Methyl-2-(piperidin-1-yl)-1,3-thiazol-5-yl]methylidene}hydrazin-1-yl]benzoic acid], the IC50 [2] is reported as 90.3 µM.

In the case of `O=S(=O)(F)Cc1ccccc1` [PMSF], the “Residual activity AiWssI^ΔN” value [3] is reported as 106.3 ± 6.8% and the “Residual activity PfWssI^ΔN” value [4] is reported as 103.2 ± 4.2%.

AiWssI^ΔN (Achromobacter insuavis) was tested, and the Km [5] was 3850 ± 1070 µM, the kcat [5] was 0.031 ± 0.0035 s⁻¹ and the kcat/Km [5] was 8 M⁻¹ s⁻¹. It also gave a Km [6] of 570 ± 240 µM, a kcat [6] of 0.00258 ± 0.00028 s⁻¹ and a kcat/Km [6] of 4.5 M⁻¹ s⁻¹.

For `OC[C@H]1O[C@@H](O[C@H]2[C@H](O)[C@@H](O)[C@H](O[C@H]3[C@H](O)[C@@H](O)[C@H](O[C@H]4[C@H](O)[C@@H](O)[C@H](O[C@H]5[C@H](O)[C@@H](O)C(O)O[C@@H]5CO)O[C@@H]4CO)O[C@@H]3CO)O[C@@H]2CO)[C@H](O)[C@@H](O)[C@@H]1O` (some centres unmarked) [cellopentaose], the “Increase in AiWssI^ΔN activity versus reaction without celloacceptors” value [1] was 28% and the “Specific activity of AiWssI^ΔN with acceptor relative to no acceptor control” value [1] was “Significant increases in activity”.

For `CC(=O)Nc1ccc(S(=O)(=O)Nc2ccc([N+](=O)[O-])cc2)cc1` [Compound 7, N-{4-[(4-Nitrophenyl)sulfamoyl]phenyl}acetamide], the IC50 [2] was 100 µM.

Molecule `CCOC(=O)NC(=O)/C(C#N)=C/c1ccc(N(C)C)cc1` [Compound 2, Ethyl N-[(2E)-2-cyano-2-{[4-(dimethylamino)-phenyl]methylidene}acetyl]carbamate] has an IC50 [2] of 60.2 µM, an IC50 [7] of 22.6 µM and a Ki [7] of 12 µM.

In the case of `OC[C@H]1O[C@@H](O[C@H]2[C@H](O)[C@@H](O)[C@H](O[C@H]3[C@H](O)[C@@H](O)[C@H](O[C@H]4[C@H](O)[C@@H](O)[C@H](O[C@H]5[C@H](O)[C@@H](O)[C@H](O[C@H]6[C@H](O)[C@@H](O)C(O)O[C@@H]6CO)O[C@@H]5CO)O[C@@H]4CO)O[C@@H]3CO)O[C@@H]2CO)[C@H](O)[C@@H](O)[C@@H]1O` (some centres unmarked) [cellohexaose], the “Increase in AiWssI^ΔN activity versus reaction without celloacceptors” value [1] is reported as 31% and the “Specific activity of AiWssI^ΔN with acceptor relative to no acceptor control” value [1] is reported as “Significant increases in activity”.

With `OC[C@H]1O[C@@H](O[C@H]2[C@H](O)[C@@H](O)[C@H](O[C@H]3[C@H](O)[C@@H](O)C(O)O[C@@H]3CO)O[C@@H]2CO)[C@H](O)[C@@H](O)[C@@H]1O` (some centres unmarked) [cellotriose] the “Specific activity of AiWssI^ΔN with acceptor relative to no acceptor control” value [1] was “Significant increases in activity”.

In the case of `Cn1cccc1/C=C(/C#N)c1nnc(-c2ccccc2)n1C` [Compound 3, (2Z)-3-(1-Methyl-1H-pyrrol-2-yl)-2-(4-methyl-5-phenyl-4H-1,2,4-triazol-3-yl)-prop-2-enenitrile], the IC50 [2] is reported as 85.3 µM, the IC50 [7] is reported as 41.4 µM and the Ki [7] is reported as 22.1 µM.

Molecule `O=C1NC(=O)c2ccccc2/C1=C\C=Cc1ccco1` [Compound 5, (4E)-4-[3-(Furan-2-yl)prop-2-en-1-ylidene]-1,2,3,4-tetrahydroisoquino-line-1,3-dione] has an IC50 [2] of 51.9 µM.

For `O=C[C@H](O)[C@@H](O)[C@H](O[C@@H]1O[C@H](CO)[C@@H](O)[C@H](O)[C@H]1O)[C@H](O)CO` [cellobiose], the “Specific activity of AiWssI^ΔN with acceptor relative to no acceptor control” value [1] was “Significant increases in activity”.

In the case of `CN1/C(=C/C(=O)Cn2cc(S(=O)(=O)N3CCCC3)ccc2=O)C(C)(C)c2ccccc21` [Compound 6, 1-{2-Oxo-3-[(2E)-1,3,3-trimethyl-2,3-dihydro-1H-indol-2-ylidene]propyl}-5-(pyrrolidine-1-sulfonyl)-1,2-dihydropyridin-2-one], the IC50 [2] is reported as 71.9 µM.

`CN1CCN(c2ccc(NC(=O)c3cc4sc(Nc5ccccc5)nc4s3)cn2)CC1` [Compound 4, N-[6-(4-Methylpiperazin-1-yl)pyridin-3-yl]-2-(phenylamino)thieno[2,3-days][1,3]thiazole-5-carboxamide] showed an IC50 [2] of 55.3 µM.

B1: PfWssI^ΔN (Pseudomonas fluorescens) (protein)
chain: GDTGPRVRPGCPGWLFISDELRINRHAEANAQTKAQAVIDLQKQLGQKGIDLQVVVVPDKSRIAAAQRCGLYRPAVLDNRVRDWTAMLQAAGVSALDLTETLKPLGAEAYLRTDTHWSEIGSNAGAKAVAQRTQQRGIKATPEQTFDITQAPLAVRPGDLVRLAGLDWLPPTLQPPGESVAASTTHETGGATSNADDLFGDAGLPNVALIGTSFSRNSNFVGFLQKALNAPVGNFSKDGGEFSGAAKAYFDSPAFKQTPPKLLIWEIPERDLQTPYDVITIGQ
In the case of B1, the Km [8] is reported as 2410 ± 770 µM, the kcat [8] is reported as 0.0312 ± 0.0034 s⁻¹ and the kcat/Km [8] is reported as 13 M⁻¹ s⁻¹. For the same molecule, the Km [9] was 340 ± 100 µM, the kcat [9] was 0.00162 ± 0.00016 s⁻¹ and the kcat/Km [9] was 4.8 M⁻¹ s⁻¹.
